According to PubChem BioAssay (NCI):
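Method: 48-hour compound exposure of cells in 96-well plates, five concentrations, linear interpolation of endpoints. At the GI50, growth is halved. The concentration for full growth arrest is given as TGI.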

Experiments:
Assay in all cases: NCI tumour cell line growth inhibition, 48 h
[1] = test system: NCI-H226 lung
[2] = test system: HL-60(TB) leukemia
[3] = test system: EKVX NSCLC
[4] = test system: LOX IMVI melanoma
[5] = test system: HCT-15 colon
[6] = test system: U251 CNS
[7] = test system: NCI-H23 lung
[8] = test system: OVCAR-3 ovarian
[9] = test system: K-562 leukemia
[10] = test system: UACC-257 melanoma

Structure (SMILES)	GI50 [1] [nM]	TGI [1] [µM]	GI50 [2] [nM]	TGI [2] [µM]	GI50 [3] [µM]	TGI [3] [µM]	GI50 [4] [nM]	TGI [4] [µM]	GI50 [5] [µM]	TGI [5] [µM]	GI50 [6] [nM]	TGI [6] [µM]	GI50 [7] [nM]	TGI [7] [µM]	GI50 [8] [µM]	TGI [8] [µM]	GI50 [9] [µM]	TGI [9] [µM]	GI50 [10] [µM]	TGI [10] [µM]
Cn1ccnc1C(=O)/C=C/c1ccc(CC(=O)Nc2ccc(C(F)(F)F)cc2)cc1	4190	16	1800	9.82	3.07	8.49	2180	4.37	1.4	> 16.7	1890	3.93	3280	6.9	2.95	6.88	0.614	> 16.7	8.03	> 16.7
COc1cccc2nc3cc(C)c(C)cc3nc12	–	> 100	–	> 100	–	> 100	–	> 100	–	> 100	–	> 100	–	> 100	–	> 100	–	> 100	–	> 100
CCOC(=O)c1nc(-c2ccccc2)oc1OCC	–	> 100	–	> 100	–	38.6	–	> 100	–	–	–	> 100	–	> 100	–	> 100	–	> 100	–	–
CC(C)(C#N)c1cc(C(=O)Nc2cc(Nc3ncccc3-c3ncnc4nc[nH]c34)ccc2F)cc(C(F)(F)F)c1	289	> 6.4	526	> 10	–	> 6.56	380	2.41	–	> 2.22	–	> 10	514	> 4.14	–	> 4.1	0.345	> 10	0.112	> 3.21
FC(F)(F)c1ccc(-c2cnc(Cl)nc2NCc2cc(C(F)(F)F)cc(C(F)(F)F)c2)cc1	2610	> 100	2600	6.73	–	–	2740	> 100	3.48	> 100	2810	> 100	3280	> 100	2.79	9.25	3.77	> 100	2.18	7.28
Nc1n[nH]c2ccc([C@@H]3Nc4ccc5[nH]ncc5c4[C@H]4C5C=CC(C5)[C@@H]34)cc12 (some centres not stated)	636	10.6	321	4.39	0.505	43.2	443	11.8	0.316	13.5	433	22.2	446	14	0.291	4.23	0.0992	> 100	12.5	58.5
O=c1[nH]c(-c2ccc(-c3nc4cc([N+](=O)[O-])ccc4c(=O)[nH]3)cc2)nc2cc([N+](=O)[O-])ccc12	–	> 100	–	> 100	–	> 100	–	> 100	–	> 100	–	> 100	–	> 100	–	> 100	–	> 100	–	> 100
O=C1CCC2(c3ccccc3)Nc3ncccc3N12 (configuration not stated)	–	> 100	–	> 100	–	> 100	–	> 100	–	> 100	–	> 100	–	> 100	–	> 100	–	> 100	–	> 100
O=C(Nc1nc(=S)c2c(ncn2CCO)[nH]1)c1ccccc1	–	> 100	–	> 100	–	> 100	–	> 100	–	> 100	–	> 100	–	–	–	> 100	–	> 100	–	> 100
CCOC(=O)c1nc(Nc2ccc(Cl)cc2)c2ccccc2n1	–	–	> 50000	> 50	13	44.1	9920	18.6	14.9	> 50	8860	18.5	10700	18.9	6.11	13.2	46	> 50	13	30.6
O=C1NC2C=CN(Cc3ccccc3)C=C2C(=O)N2CCCC12 (configuration not stated)	–	> 100	–	> 100	–	> 100	–	–	–	> 100	–	> 100	–	> 100	–	> 100	–	–	–	> 100
C=CC1C(OC2OC(CO)C(O)C(O)C2O)OC=C(C(=O)OC)C1CC=O (configuration not stated)	–	> 100	–	> 100	–	> 100	–	> 100	–	> 100	–	> 100	–	> 100	–	> 100	–	> 100	–	–
COCCNc1cc(NC(=O)N2CCCc3cc(CN4CCN(C)CC4=O)c(C=O)nc32)ncc1C#N	> 50000	> 50	> 50000	> 50	> 50	> 50	> 50000	> 50	33.1	> 50	> 50000	> 50	> 50000	> 50	> 50	> 50	–	–	> 50	> 50
CCCCCCCOc1c(OC)cc(C2CC(=O)Nc3c2c(C)nn3-c2nc3ccccc3[nH]2)cc1OC (configuration not stated)	2100	4.56	2880	9.03	2.54	8.15	2120	4.51	3.12	> 100	3720	> 100	2950	9.96	–	–	4.23	> 100	4.03	> 100
COc1ccc(-c2nn(-c3cccc(Cl)c3)cc2-c2cc(-c3ccccc3)nc(N)n2)cc1	4990	22	2530	6.21	2.32	15	–	–	3.6	16.1	1590	3.03	2830	10.4	4.53	15.3	1.92	5.37	2.58	8.51
CCCCNC(=O)NS(=O)(=O)c1ccc(N2N=C(c3cc(C)ccc3C)CC2c2cc(OC)c(OC)c(OC)c2)cc1 (configuration not stated)	3290	13	2870	7.62	–	–	2240	4.75	2.81	11.1	2110	5.62	2350	6.22	2.07	3.99	3.14	12.7	3.39	12.9
CCN1C(=O)N(CC)C2C1NN=c1s/c(=C\c3cc4ccccc4[nH]3)c(=O)n12 (configuration not stated)	186	61.6	< 11.7	< 0.0191	0.0453	> 100	< 10	> 100	0.0324	> 100	38.3	17.4	44.5	> 76.9	–	–	< 0.01	> 100	12.2	> 100
Cc1cn2c(/C=N/Nc3ccccn3)c(-c3ccc(Cl)c([N+](=O)[O-])c3)nc2s1	–	–	> 50000	> 50	21.6	> 50	8030	16.5	16	> 50	8220	15.4	10900	27.2	11	27.3	26.7	> 50	21.3	> 50
C=C1CCC2[C@@H](CCC3[C@]2(C)CCC[C@]3(C)C(=O)OC)C1CCO (some centres not stated)	–	32.1	–	9.36	–	37.9	–	–	–	27.3	–	26.4	–	23.2	–	26	–	26.1	–	18.6
Cc1ccc2c(c1)C(=O)c1c-2n(CCCBr)c(=O)c2cc([N+](=O)[O-])ccc12	96900	> 100	18300	> 100	> 100	> 100	17900	> 100	97.8	> 100	24800	> 100	–	–	71.1	> 100	32.1	> 100	> 100	> 100
C=CCC(OCCOCC)c1cc(OCCOCC)ccc1OC (configuration not stated)	–	> 100	–	> 100	–	> 100	–	> 100	–	> 100	–	> 100	–	–	–	> 100	–	> 100	–	> 100
C/C=C/C=C/CCCCCCCCCCCCCC1(OC)C=CC(CC(=O)OC)OO1 (configuration not stated)	–	–	–	18.4	5.69	17.5	2020	3.9	3.08	11.2	–	31.2	4300	14	6.7	20.6	–	> 50.1	–	35.4
C[C@@H](NC1CCC[C@H]1O)c1ccccc1 (some centres not stated)	–	> 100	–	> 100	–	> 100	–	> 100	–	> 100	–	> 100	–	–	–	> 100	–	> 100	–	> 100
O=C1c2ccccc2CC1C1(O)C(=O)Nc2ccccc21 (configuration not stated)	–	> 100	–	> 100	–	> 100	–	> 100	–	> 100	–	–	–	> 100	–	> 100	–	> 100	–	> 100
